Results: PubChem BioAssay AID330 (DTP/NCI, 2004)
Several values for one entry are separate records, joined by “and”; a condition that tells them apart may be missing. Equal values may be shown once. Toxic doses and inconclusive results are not listed. Rule for the calls: active = survival T/C of 150% or more; inactive = T/C below 125% in these data.

System: P388 leukemia ip, CD2F1 mice, survival T/C
Test: NCI In Vivo Anticancer Drug Screen. Data for tumor model P388 Leukemia (intraperitoneal) in CD2F1 (CDF1) mice
Settings: endpoint: median survival time, higher = longer survival
Outline: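 Mice carrying the transplanted tumor received test compound or vehicle. Survival was recorded in each group, and the value is the treated-group measurement divided by that of the vehicle-treated control group.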

[1] = dose: 25.0 mg/kg/injection, schedule: Q01DX009 (ip), vehicle: saline with Tween-80
[2] = dose: 50.0 mg/kg/injection, schedule: Q01DX009 (ip), vehicle: saline with Tween-80
[3] = dose: 100.0 mg/kg/injection, schedule: Q01DX009 (ip), vehicle: saline with Tween-80
[4] = dose: 200.0 mg/kg/injection, schedule: Q01DX009 (ip), vehicle: saline with Tween-80
[5] = dose: 100.0 mg/kg/injection, schedule: Q04DX003 (ip), vehicle: saline with Tween-80
[6] = dose: 400.0 mg/kg/injection, schedule: Q04DX003 (ip), vehicle: saline with Tween-80
[7] = dose: 60.0 mg/kg/injection, schedule: Q01DX005 (ip), vehicle: saline with Tween-80
[8] = dose: 120.0 mg/kg/injection, schedule: Q01DX005 (ip), vehicle: saline with Tween-80
[9] = dose: 240.0 mg/kg/injection, schedule: Q01DX005 (ip), vehicle: saline with Tween-80
[10] = dose: 100.0 mg/kg/injection, schedule: Q01DX009 (ip), vehicle: saline
[11] = dose: 200.0 mg/kg/injection, schedule: Q01DX009 (ip), vehicle: saline
[12] = dose: 100.0 mg/kg/injection, schedule: Q04DX003 (ip), vehicle: saline
[13] = dose: 200.0 mg/kg/injection, schedule: Q04DX003 (ip), vehicle: saline
[14] = dose: 400.0 mg/kg/injection, schedule: Q04DX003 (ip), vehicle: saline

Measured: T/C

COc1ccc(/C=C2/SC(=S)N(C(C)C)C2=O)cc1OC
inactive: dose: 6.25 mg/kg/injection, schedule: Q01DX009 (ip), vehicle: saline with Tween-80 88 % of control | dose: 12.5 mg/kg/injection, schedule: Q01DX009 (ip), vehicle: saline with Tween-80 90 % of control | [1] 94 % of control | [2] 88 % of control

C[As](C)SC1CC(OC(=O)c2ccccc2)C(OC(=O)c2ccccc2)C(COC(=O)c2ccccc2)O1 (centres undefined)
inactive: [2] 100 % of control | [3] 106 % of control | [4] 105 % of control

CCCCCCC(O)CCCCCC
inactive: dose: 100.0 mg/kg/injection, schedule: Q04DX003 (ip), vehicle: other 104 % of control | dose: 200.0 mg/kg/injection, schedule: Q04DX003 (ip), vehicle: other 109 % of control | dose: 400.0 mg/kg/injection, schedule: Q04DX003 (ip), vehicle: other 100 % of control

O=C1c2ccccc2C(=O)c2ncccc21
inactive: [5] 100 % of control | dose: 200.0 mg/kg/injection, schedule: Q04DX003 (ip), vehicle: saline with Tween-80 99 % of control | [6] 100 % of control

CN(C)CCN1C(=O)c2c(c3cccn3c3c2cnn3-c2ccccc2)C1=O
inactive: [7] 100 % of control | [8] 102 % of control | [9] 100 % of control

CN(C)Sc1ccc(Cl)cc1[N+](=O)[O-]
inactive: [2] 109 % of control | [3] 100 % of control | [10] 97 % of control | [4] 106 % of control | [11] 97 % of control

CC1=CC(=O)C2OC(=O)CC3C=CCC1C32C (centres undefined)
inactive: dose: 25.0 mg/kg/injection, schedule: Q01DX005 (ip), vehicle: Klucel (hydroxypropylcellulose) (HPC) 99 % of control | dose: 50.0 mg/kg/injection, schedule: Q01DX005 (ip), vehicle: Klucel (hydroxypropylcellulose) (HPC) 103 % of control | dose: 100.0 mg/kg/injection, schedule: Q01DX005 (ip), vehicle: Klucel (hydroxypropylcellulose) (HPC) 103 % of control

CCCCC/C=C/C(=O)OC
inactive: dose: 100.0 mg/kg/injection, schedule: Q04DX002 (ip), vehicle: saline with Tween-80 100 % of control | dose: 200.0 mg/kg/injection, schedule: Q04DX002 (ip), vehicle: saline with Tween-80 100 % of control | dose: 400.0 mg/kg/injection, schedule: Q04DX002 (ip), vehicle: saline with Tween-80 100 % of control

COC(=S)SCN(CSC(=S)OC)c1ccccc1Cl
inactive: [12] 100 % of control | [13] 100 % of control | [14] 118 % of control

Nc1ccc2oc3cccnc3c2c1
inactive: [12] 104 % of control | [13] 111 % of control | [14] 102 % of control

COC(=O)CCCCC(=O)OC
inactive: [12] 109 % of control | [13] 109 % of control | [14] 109 % of control

O=Cc1c(-c2ccccc2)nc2sc(-c3ccc4c(c3)OCO4)nn12
inactive: [7] 102 % of control | [8] 99 % of control | [9] 99 % of control

COc1ccc(CC2c3cc4c(cc3CCN2C)OCO4)c(/C=C\c2ccccc2)c1OC (centres undefined)
inactive: dose: 6.25 mg/kg/injection, schedule: Q01DX001 (ip), vehicle: saline + alcohol 92 % of control | dose: 12.5 mg/kg/injection, schedule: Q01DX001 (ip), vehicle: saline + alcohol 93 % of control | dose: 25.0 mg/kg/injection, schedule: Q01DX001 (ip), vehicle: saline + alcohol 90 % of control | dose: 200.0 mg/kg/injection, schedule: Q01DX001 (ip), vehicle: saline + alcohol 87 % of control

CCCCOc1ccc(C(=O)SCCCN=C(N)N)cc1
inactive: dose: 12.5 mg/kg/injection, schedule: Q01DX005 (ip), vehicle: saline 98 % of control | dose: 25.0 mg/kg/injection, schedule: Q01DX005 (ip), vehicle: saline 100 % of control | dose: 50.0 mg/kg/injection, schedule: Q01DX005 (ip), vehicle: saline 96 % of control and 98 % of control and 105 % of control | dose: 100.0 mg/kg/injection, schedule: Q01DX005 (ip), vehicle: saline 97 % of control

C=CC(=O)C(C(=O)OCC)=P(c1ccccc1)(c1ccccc1)c1ccccc1
inactive: dose: 60.0 mg/kg/injection, schedule: Q01DX005 (ip), vehicle: Klucel (hydroxypropylcellulose) (HPC) 98 % of control | dose: 120.0 mg/kg/injection, schedule: Q01DX005 (ip), vehicle: Klucel (hydroxypropylcellulose) (HPC) 97 % of control | dose: 240.0 mg/kg/injection, schedule: Q01DX005 (ip), vehicle: Klucel (hydroxypropylcellulose) (HPC) 101 % of control

COc1ccc2c(NCCCCCCCCNc3c4ccc(OC)cc4nc4ccc(Cl)cc34)c3cc(Cl)ccc3nc2c1
inactive: dose: 0.63 mg/kg/injection, schedule: Q01DX009 (ip), vehicle: other 91 % of control | dose: 1.25 mg/kg/injection, schedule: Q01DX009 (ip), vehicle: other 105 % of control | dose: 2.5 mg/kg/injection, schedule: Q01DX009 (ip), vehicle: other 106 % of control | dose: 5.0 mg/kg/injection, schedule: Q01DX009 (ip), vehicle: other 118 % of control

CCCCOC(=O)c1[nH]cnc1/N=N\N(C)C
inactive: [1] 120 % of control | [3] 105 % of control | [5] 108 % of control | dose: 132.0 mg/kg/injection, schedule: Q04DX003 (ip), vehicle: saline with Tween-80 100 % of control | dose: 300.0 mg/kg/injection, schedule: Q04DX003 (ip), vehicle: saline with Tween-80 90 % of control | [6] 100 % of control

COC(=O)C1C2C(C)CC3(CC12C)OCCO3 (centres undefined)
inactive: [3] 91 % of control | [4] 91 % of control | dose: 400.0 mg/kg/injection, schedule: Q01DX009 (ip), vehicle: saline with Tween-80 91 % of control

CC(=O)c1cc2c(cc1I)OCO2
inactive: dose: 100.0 mg/kg/injection, schedule: Q01DX001 (ip), vehicle: Klucel (hydroxypropylcellulose) (HPC) 101 % of control | dose: 200.0 mg/kg/injection, schedule: Q01DX001 (ip), vehicle: Klucel (hydroxypropylcellulose) (HPC) 99 % of control | dose: 400.0 mg/kg/injection, schedule: Q01DX001 (ip), vehicle: Klucel (hydroxypropylcellulose) (HPC) 101 % of control

Oc1ccc(O)c(/C=N/NC(=S)NC2CC3CC2C2C=CCC32)c1 (centres undefined)
inactive: dose: 12.5 mg/kg/injection, schedule: Q01DX009 (ip), vehicle: olive oil, sesame oil, peanut oil 90 % of control | dose: 25.0 mg/kg/injection, schedule: Q01DX009 (ip), vehicle: olive oil, sesame oil, peanut oil 102 % of control | dose: 50.0 mg/kg/injection, schedule: Q01DX009 (ip), vehicle: olive oil, sesame oil, peanut oil 102 % of control | dose: 100.0 mg/kg/injection, schedule: Q01DX009 (ip), vehicle: olive oil, sesame oil, peanut oil 98 % of control | dose: 200.0 mg/kg/injection, schedule: Q01DX009 (ip), vehicle: olive oil, sesame oil, peanut oil 105 % of control

CNC(=O)Nc1ccn(C(=O)NC)c(=O)n1
inactive: dose: 100.0 mg/kg/injection, schedule: Q04DX002 (ip), vehicle: Klucel (hydroxypropylcellulose) (HPC) 114 % of control | dose: 200.0 mg/kg/injection, schedule: Q04DX002 (ip), vehicle: Klucel (hydroxypropylcellulose) (HPC) 120 % of control

CCOC(=O)C(CC)CO (centres undefined)
inactive: dose: 50.0 mg/kg/injection, schedule: Q01DX009 (ip), vehicle: saline 101 % of control | [10] 100 % of control | [11] 101 % of control

CC(C)(C)C1=CC(N2CCOCC2)(C(C)(C)C)C=C(C(C)(C)C)C1=O
inactive: dose: 50.0 mg/kg/injection, schedule: Q01DX005 (ip), vehicle: saline with Tween-80 94 % of control | dose: 100.0 mg/kg/injection, schedule: Q01DX005 (ip), vehicle: saline with Tween-80 103 % of control | dose: 200.0 mg/kg/injection, schedule: Q01DX005 (ip), vehicle: saline with Tween-80 94 % of control
